Measured values reported in publication PMC4360222 (International Journal of Neuropsychopharmacology, 2015).
Like-named read-outs stand apart in the source and are kept apart here.

Assays:
D2 receptors = conditions: ref Clark et al., 1985; Burris et al., 2002; Tadori et al., 2005; cited from earlier work
[1] = target: T1, D2-like autoreceptors (rat brain striatal minces, [3H]-DA synthesis) (Rattus norvegicus, UniProt P61169); experiment: cell-based
[2] = target: T1, D2-like autoreceptors (rat brain striatal minces, [3H]-DA synthesis)

T1 sequence (P61169 1-415 isoform P61169-2): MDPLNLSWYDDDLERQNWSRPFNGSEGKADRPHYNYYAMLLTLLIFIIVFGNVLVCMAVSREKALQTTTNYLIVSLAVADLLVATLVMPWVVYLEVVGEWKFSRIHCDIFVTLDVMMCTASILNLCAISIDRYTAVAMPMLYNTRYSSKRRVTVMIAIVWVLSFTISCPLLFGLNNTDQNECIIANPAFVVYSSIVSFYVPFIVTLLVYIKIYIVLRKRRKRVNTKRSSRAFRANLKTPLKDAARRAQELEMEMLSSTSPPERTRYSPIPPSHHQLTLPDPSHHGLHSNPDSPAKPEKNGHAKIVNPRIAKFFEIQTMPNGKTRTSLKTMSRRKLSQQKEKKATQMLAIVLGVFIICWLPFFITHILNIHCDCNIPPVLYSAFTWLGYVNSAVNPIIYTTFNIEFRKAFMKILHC

blockade of QUIN decrease of DA synthesis by antagonist ([2]; 2mM K+, data not shown) | reversal of decrease in DA synthesis elicited by 1nM S-(-)-PPP ([2]; sulpiride 100nM) | blockade of effect of ARI 1 µM on DA synthesis ([2]; sulpiride 1 µM, 2mM K+) | blockade of inhibitory effect of ARI 10nM on DA synthesis ([2]; sulpiride 1 µM, 2mM K+) | SMILES | reported affinity for D2 receptors (D2 receptors) | Emax ([1]; read-out: Emax, inhibition of [3H]-dopamine synthesis, basal 2mM K+) [%] | Emax ([1]; read-out: Emax, inhibition of [3H]-dopamine synthesis, stimulated 15mM K+) [%] | Emax ([1]; read-out: maximal effect on DA synthesis, 2mM K+) [%] | Emax ([1]; read-out: maximal effect on DA synthesis, 15mM K+) [%]
– | – | – | – | CCCN1CCC[C@@H](c2cccc(O)c2)C1 [Preclamol (S-(-)-PPP), (-)-3-(3-hydroxyphenyl)-N-n-propylpiperidine] | high-nanomolar/low-micromolar range | 34 | 31 | -34 | -31
totally blocked | completely reversed | partially blocked | fully eliminated | CCN1CCC[C@H]1CNC(=O)c1cc(S(N)(=O)=O)ccc1OC [sulpiride, (S)-(-)-sulpiride] | – | – | – | – | –
